Results: publication PMC4440816, “Positron Emission Tomography studies with [^11C]PBR28 in the Healthy Rodent Brain: Validating SUV as an Outcome Measure of Neuroinflammation” (PLoS ONE, 2015)
Several values for one entry are separate records, joined by “and”; a condition that tells them apart may be missing. Equal values may be shown once.

Assays:
[1] = Arterial blood and plasma radioactivity (gamma counter); type: in vivo, Wistar rats; conditions: rats; for plasma/blood ratio of radioactivity: average
Method: (§1) Arterial blood sampling was performed during the PET scan in the first group of four rats. In addition to the insertion of the cannula in the tail vein, another cannula was inserted into the femoral artery. For the rats, sixteen arterial blood samples of 0.1 ml were taken for measurement of radioactivity in plasma and blood using a gamma counter. Four samples of 0.5 ml blood were taken for radiometabolite analysis at 4, 20, 40 and 60 minutes after injection.

[2] = Radiometabolite analysis of plasma by radio-HPLC; type: in vivo, Wistar rats
Method: as §1
To determine the percentages of radioactivity in plasma that corresponded to unchanged [^11C]PBR28 and its radioactive metabolites, reversed-phase HPLC was used. Plasma obtained after centrifugation of 0.5 ml blood at 2,000 g for 2–4 min was mixed with acetonitrile (0.35 ml) and centrifuged for 4 min. The acetonitrile extraction ratio was 93.5% ± 1.8% at 4 min, 87.8% ± 0.5% at 20 min, 85.2% ± 1.1% at 40 min and 78.9% ± 2.4% at 60 min. The supernatant was mixed with 2 ml of water and analysed using radio-HPLC. The radio-HPLC system used consisted of an interface module (D-7000; Hitachi: Tokyo, Japan), a L-7100 pump (Hitachi), an injector (model 7125, with a 5.0-mL loop; Rheodyne: Cotati, USA) equipped with a μ-Bondapak C18 column (300 x 7.8 mm, […]; Waters: New England, USA), and an ultraviolet absorption detector (L-7400, 254 nm; Hitachi) in series with a 150TR; Packard (housed in a shield of 50 mm thick lead) equipped with a 550 μL flow cell. Acetonitrile (A) and ammonium formate (100 mM) (B) were used as the mobile phase at 6.0 mL/min, according to the following gradient: 0–4 min (A/B), 40:60 → 80:20 v/v; 4.1–6 min(A/B), 80:20 v/v; 8 min (A/B), 40:60 v/v. Peaks for radioactive compounds eluting from the column were integrated and their areas were expressed as a percentage of the sum of the areas of all detected radioactive compounds (decay-corrected to the time of injection on the HPLC).

[3] = biological target: T1, 18 kD Translocator protein (TSPO) (Mus musculus, UniProt P50637); test: Small animal PET brain uptake (SUV) and test-retest, mice; type: in vivo, C57BL/6J mice; conditions: for ICC of SUV / TRV of SUV: Mice, SUV 57–63 min, 7-day interval
T1 construct: from tissue; host or cells: brain of living healthy male C57BL/6J mice (in vivo PET)
Method: (§2) The study was divided in two parts. In the first part arterial sampling was performed in four rats to allow for quantification of [^11C]PBR28 binding and comparison with the SUV. In the second part four rats and four mice were used to determine the test-retest variability of the SUV, with a 7-day interval between the scans.
(§3) The animals were anesthetized with isoflurane (induction 4–5% mixed with oxygen and maintenance 1.5–2% mixed with air/oxygen (50/50)) at a flow rate of 1 L/min and a cannula was inserted into the tail vein for the injection of [^11C]PBR28. After the cannulation, the rats were positioned into the nanoScan PET/MRI or nanoScan PET/CT (Mediso Ltd., Budapest, Hungary) in a transaxial position with their heads in the centre of the field of view. A bolus injection of [^11C]PBR28 was given via the canula in the tail vein at start of the PET measurement. The injection was followed by a saline flush. An emission scan of 63 minutes was acquired for all animals. The average injected radioactivity was 23 ± 5 MBq for the rats and 9.9 ± 1.6 MBq for the mice. The injected mass was 0.05 ± 0.03 μg (n = 8) in rats and 0.011 ± 0.011 μg (n = 8) in mice.
(§4) The PET data was acquired in list mode and was reconstructed into 25 timeframes (4x10 s, 4x20 s, 4x60 s, 7x180 s, 6x360 s) with MLEM reconstruction (20 iterations). Image data were not corrected for attenuation or scatter. For each animal a T1-weighted MRI scan (Isotropic FSE sequence, TR/TE: 2000/84.1) was made for anatomical reference.
(§5) The reconstructed dynamic PET measurements were manually aligned with the corresponding MRI scans. The MRI and PET scans were then normalized to the rat or mice brain MRI template available in PMOD (PMOD 3.2 Zurich, Switzerland). Eight regions of interest were defined using the available template in PMOD, i.e. the striatum, hippocampus, hypothalamus, midbrain, thalamus, cerebral cortex, brainstem and cerebellum. Time-activity curves were generated for each region of interest. For all animals the regional brain uptake values were expressed as SUV and were calculated for 57–63 minute after injection, i.e. the last time-frame. The time used for calculating the SUV was based on the tissue-to-plasma ratio obtained from the first part of the study. From 15–50 minutes the tissue-to-plasma ratio is declining, and the estimated equilibrium state is reached at 50–60 minutes after injection. However, it can be beneficial for future studies to use a shorter scan time, i.e. to allow for scanning of more animals per batch of [^11C]PBR28 and to improve counting statistics. The SUV was therefore also calculated for the time-frame of 39–45 minute after injection, In both cases the SUV was calculated according to Eq 1, and it was assumed that 1 cm^3 of brain tissue equals 1 g.
(§6) SUV=tissue activity concentration(Bq/cm3)/injected dose(Bq)/body weight(g) (1)
(§7) For the test-retest study the test-retest variability was calculated using Eq 2.
(§8) TRV=|test value−retest value|/(test value+retest value)/2*100 (2)
(§9) Additionally the […] correlation coefficient (ICC) was calculated as an index of the reliability of the test-retest measurement using Eq 3, where MS = mean sum of squares, BS = between-subjects, WS = within-subjects, and df = degrees of freedom. It combines the information of the difference between and within the test and retest scan. The ICC values were interpreted as follows: 0–0.2 indicated slight agreement, 0.3–0.4 indicated fair agreement, 0.5–0.6 indicated moderate agreement, 0.7–0.8 indicated substantial agreement, and >0.8 indicated almost perfect agreement between the test and retest measures.
(§10) ICC=MSBS−MSWS/MSBS+(dfWS*MSWS) (3)

[4] = biological target: T2, 18 kD Translocator protein (TSPO) (Rattus norvegicus, UniProt P16257); test: Small animal PET brain uptake (SUV) and test-retest, rats; type: in vivo, Wistar rats; conditions: for ICC of SUV / TRV of SUV: Rats, SUV 57–63 min, 7-day interval
T2 construct: from tissue; host or cells: brain of living healthy male Wistar rats (in vivo PET)
Method: as §2, §3, §4, §5, §6, §7, §8, §9, §10

[5] = biological target: T2, 18 kD Translocator protein (TSPO); test: Dynamic PET with arterial sampling; VT by 2-TCM and Logan graphical analysis, compared with SUV; type: in vivo, Wistar rats; conditions: for VT 2-TCM / VT Logan: n = 3; for VT Logan: t* = 21 min
Method: as §2, §3, §4, §1, §5, §6
For the first groups, the arterial samples and percentage of metabolites were used to determine the metabolite corrected plasma-input function. Two-tissue compartment modelling (2-TCM) and Logan graphical analysis were used to calculate the volume of distribution (VT), using the metabolite corrected plasma curve as input. For the Logan analysis data was fitted from 21 minutes after injection (t* = 21 min).

TSPO = conditions: cited from earlier work
[6] = rats, 4 minutes after injection
[7] = rats, eight brain regions, SUV 57–63 min

In the case of `CC(=O)N(Cc1ccccc1O[11CH3])c1ccc(Oc2ccccc2)nc1` [[^11C]PBR28, N-acetyl-N-(2-[^11C]methoxybenzyl)-2-phenoxy-5-pyridinamine], the “plasma/blood ratio of radioactivity” value ([1]; 20 seconds after injection) is reported as 0.2, the “plasma/blood ratio of radioactivity” value ([1]; 60 minutes after injection) is reported as 1.0 and the “time of peak uptake in blood and plasma after injection” value ([1]; arterial samples) is reported as “around 20 seconds”. For the same compound, the “metabolism in rats” value ([2]; plasma) was “rapidly metabolized”, the fraction metabolized [2, 6] was “about 60%” and the “parent compound left in plasma” value [2, 6] was 40.7 ± 9.0%. The “parent compound left in plasma” value ([2]; rats, 20 minutes after injection) was 8.2 ± 2.6%, the “parent compound left in plasma” value ([2]; rats, 40 minutes after injection, n = 1) was 3.7% and the “parent compound left in plasma” value ([2]; rats, 60 minutes after injection) was 2.9 ± 1.5%. For the same compound, the “ICC of SUV” value ([3]; Brainstem) was 0.31, the “TRV of SUV” value ([3]; Brainstem) was 13.2 and the “ICC of SUV” value ([3]; Cerebellum) was 0.29. The “TRV of SUV” value ([3]; Cerebellum) was 13.7, the “TRV of SUV” value ([3]; Cerebral cortex) was 13.4 and the “ICC of SUV” value ([3]; Hippocampus) was 0.32. The “TRV of SUV” value ([3]; Hippocampus) was 6.9 ± 4.7 and 6.9, the “ICC of SUV” value ([3]; Hypothalamus) was 0.01 and the “TRV of SUV” value ([3]; Hypothalamus) was 23.0. The “ICC of SUV” value ([3]; Midbrain) was 0.02, the “TRV of SUV” value ([3]; Midbrain) was 15.1 and the “TRV of SUV” value ([3]; Striatum) was 23.6 ± 15.6 and 23.6. The “ICC of SUV” value ([3]; Thalamus) was 0.71, the “TRV of SUV” value ([3]; Thalamus) was 7.6 and the “time of maximum total brain uptake (SUV) after injection” value ([3]; mice, i.v. bolus) was “around 1 min”. The “ICC of SUV” value ([4]; Brainstem) was 0.58, the “TRV of SUV” value ([4]; Brainstem) was 17.7 and the “ICC of SUV” value ([4]; Cerebellum) was 0.72. The “TRV of SUV” value ([4]; Cerebellum) was 11.5, the “ICC of SUV” value ([4]; Cerebral cortex) was 0.81 and the “TRV of SUV” value ([4]; Cerebral cortex) was 16.7. For the same compound, the “ICC of SUV” value ([4]; Hippocampus) was 0.88, the “TRV of SUV” value ([4]; Hippocampus) was 7.7 ± 3.5 and 7.7 and the “ICC of SUV” value ([4]; Hypothalamus) was 0.59. The “TRV of SUV” value ([4]; Hypothalamus) was 20.4 ± 15.4 and 20.4, the “ICC of SUV” value ([4]; Midbrain) was 0.86 and the “TRV of SUV” value ([4]; Midbrain) was 12.3. The “ICC of SUV” value ([4]; Striatum) was 0.69, the “TRV of SUV” value ([4]; Striatum) was 13.6 and the “ICC of SUV” value ([4]; Thalamus) was 0.71. For the same compound, the “TRV of SUV” value ([4]; Thalamus) was 13.7, the “time of maximum total brain uptake (SUV) after injection” value ([4]; non-sampled rats, i.v. bolus) was “around 1 min” and the “VT 2-TCM” value ([5]; Brainstem, rats) was 56.7. For the same compound, the “VT Logan” value ([5]; Brainstem, rats) was 49.7, the “VT 2-TCM” value ([5]; Cerebellum, rats) was 63.6 and the “VT Logan” value ([5]; Cerebellum, rats) was 54.0. The “VT 2-TCM” value ([5]; Cerebral cortex, rats) was 45.3, the “VT Logan” value ([5]; Cerebral cortex, rats) was 41.5 and the “VT 2-TCM” value ([5]; Hippocampus, rats) was 41.1. The “VT Logan” value ([5]; Hippocampus, rats) was 38.7, the “VT 2-TCM” value ([5]; Hypothalamus, rats) was 58.3 and the “VT Logan” value ([5]; Hypothalamus, rats) was 51.3. The “VT 2-TCM” value ([5]; Midbrain, rats) was 40.9, the “VT Logan” value ([5]; Midbrain, rats) was 36.2 and the “VT 2-TCM” value ([5]; Striatum, rats) was 37.4. The “VT Logan” value ([5]; Striatum, rats) was 34.5, the “VT 2-TCM” value ([5]; Thalamus, rats) was 35.8 and the “VT Logan” value ([5]; Thalamus, rats) was 34.2. For the same compound, the “SUV of sampled rats higher than SUV of non-sampled rats” value ([5]; data not shown) was “about 30%”, the “total (whole) brain VT, Logan analysis” value ([5]; rats, average) was 42.9 ± 1.7 and 43.1 and the “total brain VT, 2-TCM” value ([5]; rats, average) was 47.3. For the same compound, the “correlation (r^2) between average VT (2-TCM) and average SUV” value [5, 7] was 0.92, the “correlation (r^2) between average VT (Logan) and average SUV” value [5, 7] was 0.94 and the “affinity for the TSPO” value (TSPO) was “high affinity”. For the same compound, the “specific binding compared with [^11C]PK11195” value (TSPO) was “higher specific binding”.
In the case of `CCC(C)N([11CH3])C(=O)c1cc2ccccc2c(-c2ccccc2Cl)n1` (centres unmarked) [[^11C]PK11195], the “non-specific binding” value (TSPO) is listed as “high level of non-specific binding”.
